The term Hill slope denotes the slope factor of the fitted curve.

What all share (assay): TPP-CCR in living HL-60 cells
Common to all, as to assay type: cell-based

One test concerns the target T1, UGGT1 (Homo sapiens, UniProt Q9NYU2).
T1 construct: endogenous in cells; host or cells: HL-60 (ATCC CCL-240)
The source says:
(§1) Therefore, we performed TPP with compound concentration range (TPP-CCR) experiments according to published procedures. In brief, after preparing tryptic peptides from the non-denatured protein fractions (used for immunoblotting in the previous sections) applying the SP3 method, the peptides were labeled using TMT10plex, coding for inhibitor concentration, and the samples belonging to a TMT set were combined, offline high-pH fractionated, and analyzed by MS.
(§2) HL-60 cells were expanded as described above for CETSA and TPP-TR to 1.25 million cells per milliliter. […] A number of 2.5 million cells in 2 mL of medium were added to each tube and incubated (1 h, 37 °C). After centrifugation (300 rcf, 3 min, r.t.) and removing all of the supernating culture medium, the cells were washed once with 2 mL and once with 0.5 mL PBS (r.t.) by gently resuspending the cells, followed by centrifugation (300 rcf, 3 min, r.t.) and the complete removal of the supernatants.
(§3) After transferring the cells from the 2 mL Eppendorf tubes into correspondingly labeled PCR tubes (tube strips) using 100 µL of ice-cold PBS supplemented with protease inhibitors for resuspending the cells, the samples were further processed as described above for CETSA and TPP-TR, however, by applying a single treatment temperature of 51 °C.
(§4) For each sample set comprising ten compound concentration range samples, a same volume of the cell extracts containing the fraction of soluble, non-denatured proteins, corresponding to an average of 5 µg total protein, was used for further analysis. The calculated volume was respectively transferred into PCR tubes of a tube strip and supplemented with SDS sample buffer without DTT and bromophenol blue (final concentrations: 7.5% glycerol, 3% SDS, 37.5 mM Tris/HCl pH 7.0) and ddH2O to a final volume of 10 µL, respectively. Reduction and alkylation were performed by addition of 2.5 µL 100 mM dithiothreitol (DTT; incubation: 20 min, 56 °C, 1000 rpm in an Eppendorf ThermoMixer C, covering the tubes with aluminum foil to minimize condensation in the lids) and 3.33 µL 300 mM iodoacetamide (IAA; incubation: 15 min, r.t., in the dark without shaking), as well as 2.5 µL 100 mM DTT (incubation: 15 min, r.t., without shaking; quenching of excess of IAA). […] The beads were collected and washed (3× 200 µL 80% ethanol p.a. in HPLC-MS grade water, 1 × 200 µL acetonitrile (ACN; HPLC gradient grade)) using a device for handling of magnetic particles [patent US20100200405A1]. The ACN of the last washing step was completely removed by aspiration without letting the beads dry out.
(§5) Tryptic digest was performed on-bead by resuspending (use of an ultrasound bath may be required) the beads in 20 µL 50 mM TEAB in HPLC-MS grade water containing 0.1 µg Trypsin/Lys-C mix and 16.5 h incubation at 37 °C and 1000 rpm (Eppendorf ThermoMixer C, covering the tubes with aluminum foil to minimize condensation in the lids). Tryptic fragmentation of proteins was optimized by addition of another 0.1 µg of Trypsin/Lys-C mix in 2 µL 50 mM TEAB and 4 h incubation at 37 °C and 1000 rpm. After centrifugation for about 1 min in a table top centrifuge and magnetic concentration and retention of the beads at the inner tube wall, the supernatants containing the peptides were transferred into new PCR tubes (of tube strips) and were stored at −80 °C. The beads were discarded.
(§6) Half of the peptide samples (11 µL containing about 2.5 µg peptides) were transferred into new PCR tubes (of tube strips) and allowed to equilibrate to r.t. TMT labeling reagents were reconstituted as described for the TPP-TR samples, and 1 µL each was added to the reconstituted peptides according to the following scheme and homogenized immediately by aspiration and dispensing:
(§7) Peptide separation was performed as described above for the analysis of TPP-TR samples. […]

A further test concerns the target T2, UNC119B (Homo sapiens, UniProt A6NIH7).
T2 construct: endogenous in cells; host or cells: HL-60 (ATCC CCL-240)
Description: as §1, §2, §3, §4, §5, §6, §7

The next test addresses T3, LRRC59 (Homo sapiens, UniProt Q96AG4).
T3 construct: endogenous in cells; host or cells: HL-60 (ATCC CCL-240)
T3 sequence (Q96AG4 1-307): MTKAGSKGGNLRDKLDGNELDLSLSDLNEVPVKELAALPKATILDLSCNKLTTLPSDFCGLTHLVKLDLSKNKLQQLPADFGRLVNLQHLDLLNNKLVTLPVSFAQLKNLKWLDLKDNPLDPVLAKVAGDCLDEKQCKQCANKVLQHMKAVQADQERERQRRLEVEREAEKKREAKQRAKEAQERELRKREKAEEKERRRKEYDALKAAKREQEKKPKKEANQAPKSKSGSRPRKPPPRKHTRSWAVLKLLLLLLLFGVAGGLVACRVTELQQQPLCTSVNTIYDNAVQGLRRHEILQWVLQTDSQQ
Description: as §1, §2, §3, §4, §5, §6, §7

The target of a further test is T4, CANX (Homo sapiens, UniProt P27824).
T4 construct: endogenous in cells; host or cells: HL-60 (ATCC CCL-240)
T4 sequence (P27824 21-592): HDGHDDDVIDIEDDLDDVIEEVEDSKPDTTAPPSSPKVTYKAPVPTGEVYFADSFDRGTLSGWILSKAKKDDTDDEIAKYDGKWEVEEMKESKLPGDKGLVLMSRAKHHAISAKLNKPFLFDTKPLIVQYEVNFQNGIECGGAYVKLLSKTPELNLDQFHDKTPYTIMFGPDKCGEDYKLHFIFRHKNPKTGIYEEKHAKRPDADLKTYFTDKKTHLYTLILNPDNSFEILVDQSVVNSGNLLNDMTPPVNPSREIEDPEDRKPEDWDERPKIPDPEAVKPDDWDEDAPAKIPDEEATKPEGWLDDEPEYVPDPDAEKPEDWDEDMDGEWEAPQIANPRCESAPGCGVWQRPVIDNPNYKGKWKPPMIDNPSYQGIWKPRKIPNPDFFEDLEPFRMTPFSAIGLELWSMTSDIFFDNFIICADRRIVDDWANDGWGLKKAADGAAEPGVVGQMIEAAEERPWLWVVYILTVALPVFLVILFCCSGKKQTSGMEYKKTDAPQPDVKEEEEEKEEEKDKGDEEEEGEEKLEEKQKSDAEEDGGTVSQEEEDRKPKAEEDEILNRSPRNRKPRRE
Description: as §1, §2, §3, §4, §5, §6, §7

Setting [1] is: living HL-60 cells, […] °C, TMT-MS.

T1 sequence (Q9NYU2 43-1555): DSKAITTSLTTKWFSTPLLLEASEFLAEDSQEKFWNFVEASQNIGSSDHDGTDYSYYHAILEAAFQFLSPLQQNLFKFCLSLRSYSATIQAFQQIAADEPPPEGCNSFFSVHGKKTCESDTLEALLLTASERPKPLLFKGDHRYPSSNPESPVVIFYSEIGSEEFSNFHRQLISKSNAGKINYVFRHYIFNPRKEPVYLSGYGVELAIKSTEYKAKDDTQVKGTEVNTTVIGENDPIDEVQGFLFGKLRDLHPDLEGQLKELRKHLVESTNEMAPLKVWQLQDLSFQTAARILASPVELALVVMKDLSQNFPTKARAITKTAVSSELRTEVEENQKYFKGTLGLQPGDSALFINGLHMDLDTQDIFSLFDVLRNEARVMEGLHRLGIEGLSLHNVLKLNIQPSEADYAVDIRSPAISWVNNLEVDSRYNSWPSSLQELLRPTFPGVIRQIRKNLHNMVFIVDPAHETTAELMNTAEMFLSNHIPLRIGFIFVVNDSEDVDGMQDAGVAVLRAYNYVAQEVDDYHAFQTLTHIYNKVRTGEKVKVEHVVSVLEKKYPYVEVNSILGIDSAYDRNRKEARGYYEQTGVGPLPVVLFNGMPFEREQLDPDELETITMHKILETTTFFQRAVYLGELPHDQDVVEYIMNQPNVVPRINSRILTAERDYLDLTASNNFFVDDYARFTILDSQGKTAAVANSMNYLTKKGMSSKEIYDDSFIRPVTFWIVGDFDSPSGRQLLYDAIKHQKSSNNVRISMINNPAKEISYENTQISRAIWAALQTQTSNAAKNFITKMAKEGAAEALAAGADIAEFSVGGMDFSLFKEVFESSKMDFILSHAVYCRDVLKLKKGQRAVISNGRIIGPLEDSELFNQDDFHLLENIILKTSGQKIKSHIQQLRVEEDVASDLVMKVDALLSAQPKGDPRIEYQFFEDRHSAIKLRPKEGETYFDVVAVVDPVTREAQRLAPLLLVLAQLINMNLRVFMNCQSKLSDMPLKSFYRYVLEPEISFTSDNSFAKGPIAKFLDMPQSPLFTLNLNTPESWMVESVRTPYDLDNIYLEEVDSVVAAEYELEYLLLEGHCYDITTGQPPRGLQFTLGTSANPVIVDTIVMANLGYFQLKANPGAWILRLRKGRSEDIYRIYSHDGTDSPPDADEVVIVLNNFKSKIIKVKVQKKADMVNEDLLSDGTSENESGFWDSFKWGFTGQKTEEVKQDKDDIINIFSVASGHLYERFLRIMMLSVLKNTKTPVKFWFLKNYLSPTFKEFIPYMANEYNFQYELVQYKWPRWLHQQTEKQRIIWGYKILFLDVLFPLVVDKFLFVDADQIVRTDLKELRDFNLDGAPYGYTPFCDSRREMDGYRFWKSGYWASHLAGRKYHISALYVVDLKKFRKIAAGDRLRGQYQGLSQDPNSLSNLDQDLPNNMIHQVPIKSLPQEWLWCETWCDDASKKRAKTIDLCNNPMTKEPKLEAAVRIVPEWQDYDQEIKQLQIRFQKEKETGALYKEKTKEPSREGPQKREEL
T2 sequence (A6NIH7 whole entry): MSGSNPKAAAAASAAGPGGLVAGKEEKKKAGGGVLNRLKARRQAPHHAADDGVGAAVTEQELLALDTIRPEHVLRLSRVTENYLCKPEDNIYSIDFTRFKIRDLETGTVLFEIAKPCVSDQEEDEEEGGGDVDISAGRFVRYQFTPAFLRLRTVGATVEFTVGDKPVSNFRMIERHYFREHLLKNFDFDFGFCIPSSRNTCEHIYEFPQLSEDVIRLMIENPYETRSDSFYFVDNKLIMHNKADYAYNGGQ

For the compound `Cc1cnc(Nc2ccc(F)cc2Cl)nc1-c1c[nH]c(C(=O)N[C@H](CO)c2cccc(Cl)c2)c1` [ERK 11e], the Hill slope at UGGT1 (TPP-CCR, living cells, UGGT1) worked out at 1.97; on UNC119B (TPP-CCR, living cells, UNC119B), 0.67; on LRRC59 (TPP-CCR, living cells, LRRC59), 0.59; at CANX (TPP-CCR, living cells, CANX), 0.80. In addition, the “Hill slope (UGGT1)” value at UGGT1 (setting [1]) is 1.97. Further, the EC50 on UGGT1 (living HL-60 cells, […] °C, TMT-MS, read-out: pEC50 (UGGT1) (converted)) was 5.37 µM; at UNC119B (living HL-60 cells, […] °C, TMT-MS, read-out: pEC50 (UNC119B) (converted)), 1.05 µM; at LRRC59 (living HL-60 cells, […] °C, TMT-MS, read-out: pEC50 (LRRC59) (converted)), 1.48 µM; at CANX (setting [1]), 0.871 µM. In addition, the “Hill slope (UNC119B)” value at UNC119B (setting [1]) is 0.67. Further, the “Hill slope (LRRC59)” value at LRRC59 (setting [1]) was found to be 0.59. Besides, the “Hill slope (CANX)” value on CANX (setting [1]) is reported as 0.80.

These data come from PMC9147192, “Small Molecule Arranged Thermal Proximity Coaggregation (smarTPCA)—A Novel Approach to Characterize Protein–Protein Interactions in Living Cells by Similar Isothermal Dose–Responses” (International Journal of Molecular Sciences, 2022).
